Data: PMC8192908 (Scientific Reports, 2021)
“And” between values parts separate entries of the source, which are not always exact repeats. Identical values can stand only once. Like-named read-outs stand apart in the source and are kept apart here. Marks after values point to notes of the source that are not given here.

Tests used:
[1] = system: mouse bone marrow cells; conditions: cited from earlier work
[2] = system: spermatozoa, oocytes and embryos of Swiss albino mice; test: In vitro fertilization and pre-implantation embryo development; format: cell-based; conditions: for Total cell number (Mean ± SE): blastocysts, PTX 1 mM, PTXm-1 0.25 mM, control 92.78 ± 6.58; for Hatching rate at 120 h post insemination / Blastocyst rate at 120 h post insemination / Fertilization rate at 16 h post insemination: sperm treated with PTX 1 mM or PTXm-1 0.25 mM; for Hatching rate at 120 h post insemination: control 64.56; for Blastocyst rate at 120 h post insemination: control 81.67; for Fertilization rate at 16 h post insemination: control 83.56
Experimental: The adult female Swiss albino mice were stimulated using 5 IU of pregnant mare serum gonadotropin (PMSG) and 10 IU of human chorionic gonadotropin (hCG) at an interval of 48 h. At 13 h post hCG administration, the cumulus oocyte complexes (COCs) were collected by teasing the oviduct into M2 medium. To assess the effect of PTXm-1 on fertilization outcome and the early embryo development, Swiss albino mice were used. The male mice (6 to 8 weeks, N = 6 per trial, total 3 trials) were humanely sacrificed by cervical dislocation and cauda was dissected out. The IVF was performed as described in our earlier report. Briefly, the cauda was teased in a Petri dish containing EBSS (with 0.1% BSA) culture media and incubated at 37 °C, 5% CO2 incubator. After 2 h of incubation, the spermatozoa were collected and divided equally into 4 parts as C, VC, […] and PTXm-1 groups. The sperm suspension was centrifuged at 250 g for 8 min and the supernatant was discarded. […] The overlay containing motile sperm fraction of were collected carefully without disturbing the pellet, and were used for preparation of insemination droplets (80 µL) which was covered with paraffin oil (Cat. No. 61822605001730, Merck, Germany). The female mice were sacrificed humanely by cervical dislocation (N = 12 per trial, total 3 trials). […] […] Blastocyst rate, hatching rate and, DNA damage and total cell number was assessed in blastocysts.

[3] = system: Oct4, Sox2, Nanog, Cdx2 in blastocysts; test: mRNA expression of pluripotency and trophectoderm genes in blastocysts; format: cell-based, Swiss albino mice; conditions: PTX 1 mM, PTXm-1 0.25 mM
Experimental: RNA was extracted from blastocyst stage embryos (30 per group) using an RNA isolation aqueous micro kit (Catalogue No. AM1931; Ambion, Foster City, CA, USA) as explained. Briefly, embryos were lysed using lysis buffer to release total RNA and was eluted using elution buffer. RNA obtained was treated with DNase for 20 min at 37 °C and stored at − 80 °C. cDNA was synthesized using a Superscript first strand cDNA synthesis kit for reverse transcription polymerase chain reaction (Catalogue No. E6300; NewEngland Biolabs, Ipswich, MA, USA).
Quantitative PCR for relative expression of Sox2, Nanog, and Oct4 mRNA was done using StepOne real-time PCR system (Applied Biosystems, California, USA) with TaqMan® Gene Expression Assay probes and TaqMan® Fast Advanced MixThe relative mRNA expression of Cdx2 was also estimated using real-time PCR system with SYBER Green chemistry (TaKaRa, Shiga, Japan, Cat. No. RR420A). All the data were normalized with GAPDH housekeeping gene as an internal control. The relative expression levels were calculated in terms of fold change. The IDs for TaqMan® Gene Expression Assay probes used in this study and the specific primers used for Cdx2 gene and GAPDH housekeeping gene are given in Supplementary Table S1.

[4] = system: ejaculated spermatozoa; test: Sperm motility in ejaculated spermatozoa (swim-up, manual assessment); format: cell-based, human; conditions: PTXm-1 0.25 mM; for progressive motility vs controls / total motility vs controls: 1 h; for progressive motility vs controls / total motility vs controls / percentage of total motile spermatozoa vs controls: PTX 1 mM; for percentage of total motile spermatozoa vs controls: 1 h and 24 h
Experimental: (§1) For the study, subjects with 2–7 days of sexual abstinence were asked to provide their ejaculates by masturbation. After the completion of semen analysis (WHO, 2010), the leftover semen sample from each subject was used for experiment within 1 h of collection and was equally divided into four groups. The semen samples were washed twice with EBSS media (with bicarbonate buffer) by centrifuging at 500 g for 8 min to remove the seminal plasma. […] The EBSS medium used was with bicarbonate buffer. The samples were incubated for 1 h at 37 °C and 5% CO2. The overlay containing motile fraction of capacitated spermatozoa were collected carefully without disturbing the pellet and used for further analysis. The swim-up fraction containing motile spermatozoa were assessed for motility using manual method and sperm motion characteristics using computer assisted sperm analysis (CASA) as described earlier. […] Percentage of spermatozoa with total and progressive motility was calculated. For CASA, 8 µL sperm suspension was placed on a clean microscopic slide, covered with coverslip (18 mm × 18 mm).

[5] = system: testicular spermatozoa; test: Twitching motility of testicular spermatozoa; format: cell-based, human; conditions: PTX 1 mM, PTXm-1 0.25 mM; for spermatozoa with twitching motility vs control: increased incubation time (1 h)
Excerpt: Testicular tissue from men diagnosed with prostate cancer and admitted for orchiectomy (N = 8, age 74.33 ± 5.61 years) were collected from Urology operation theater in sterile PBS. The testis was transferred to Petri dish, washed in phosphate buffered solution (PBS) and cut into small pieces. Seminiferous tubule contents were released into the Petri dish containing EBSS medium with 0.1% BSA by milking the seminiferous tubules with the help of with the help of sterile glass slides. The cell suspension was screened for the presence of testicular spermatozoa under inverted microscope (200 × magnification). The cell suspension was divided into four equal parts- (a) Control (C): […] (b) Vehicle control (VC): […] The testicular sperm suspension was processed by discontinuous gradient technique using 40% and 80% density solutions ([…], Germany). The discontinuous gradient column was prepared by adding 1 mL of 80% and 40% gradient solutions sequentially in a sterile test tube. The testicular cell suspension was carefully added above the gradients and centrifuged at 500 g for 20 min. The pellet obtained after centrifugation was further washed by centrifuging at 400 g for 8 min twice.

[6] = system: spermatozoa from asthenozoospermic semen samples; test: Sperm kinematics by computer assisted semen analysis (CASA); format: cell-based, human; conditions: 1 h after incubation; PTX 1 mM, PTXm-1 0.25 mM; mean ± SE, N = 28
Experimental: as §1

[7] = system: tyrosine phosphorylated sperm proteins; test: Tyrosine phosphorylation of sperm proteins by immunofluorescence; format: cell-based, human; conditions: PTX 1 mM, PTXm-1 0.25 mM; control 16%
Experimental: The cells were incubated with blocking solution (PBS containing 1% BSA and 0.1% Tween-20) for 1 h followed by incubation at 4 °C overnight with anti phospho-tyrosine antibody (1:300 dilution, Clone PY20, Merck Millipore, Cat. No. 05–947). […] No. S6MQT0101), cells were counterstained with DAPI and observed under fluorescence microscope (1000x, oil immersion). The number of tyrosine phosphoprotein positive spermatozoa were counted in total of 500 spermatozoa and the result was expressed in percentage spermatozoa.

[8] = 15 min after incubation, control 5.06 ± 0.98%
[9] = asthenozoospermic samples, 24 h

Compound | Total cell number (Mean ± SE) [2] | Hatching rate at 120 h post insemination [2] | Blastocyst rate at 120 h post insemination [2] | Fertilization rate at 16 h post insemination [2] | expression of pluripotency genes in blastocysts [3] | progressive motility vs controls ([4]; asthenozoospermic samples) | total motility vs controls ([4]; asthenozoospermic samples) | percentage of total motile spermatozoa vs controls ([4]; normozoospermic samples) | spermatozoa with twitching motility [5, 8] [%] | spermatozoa with twitching motility ([5]; 24 h incubation) [%] | spermatozoa with twitching motility vs control [5] | ALH [6] | BCF [6] | LIN [6] | VAP [6] [µm/s] | VCL [6] | VSL [6] [µm/s] | WOB [6] | spermatozoa with tyrosine phosphorylated proteins [7] [%] | further results
CC(=O)CCCCn1c(=O)c2c(ncn2C)n(C)c1=O [PTX, pentoxifylline] | 88.91 ± 6.56^b,c | 67.56^a,c % | 86.34^a,c % | 95.64% and 95.64^b,c % | did not differ between the groups | significantly higher | significantly higher | increased | 11.78 ± 1.36 | 7.90 ± 1.06 | significantly higher (P < 0.001) | 5.04 ± 0.06^b µm | 8.56 ± 0.17 Hz | 28.47 ± 1.01 | 47.89 ± 0.96 | 112.60 ± 3.10^b µm/s | 28.34 ± 4.67 | 42.54 ± 0.61^b | 24.75 | cytotoxic effect on mouse bone marrow cells [1]: do not have any cytotoxic effect; STR [6]: 66.94 ± 0.98^b,c
COc1ccc2cc(/C=C/C(=O)CCCCn3c(=O)c4c(ncn4C)n(C)c3=O)ccc2c1 [PTXm-1] | 93.23 ± 8.56^e | 66.89^b,d % | 88.45^b,d % | 96.25% and 96.25^b,c % | did not differ between the groups | significantly higher | significantly higher | increased | 9.95 ± 0.79 | 13.39 ± 0.65 | significantly higher (P < 0.001) | 5.21 ± 0.09^b µm | 9.67 ± 0.19^b,c,d Hz | 27.78 ± 1.02 | 45.90 ± 0.97 | 109.6 ± 3.27^a µm/s | 27.67 ± 3.79 | 41.87 ± 0.70^b | 23.25 | cytotoxic effect on mouse bone marrow cells ([1]; mouse, in vivo): do not have any cytotoxic effect; percentage of progressively motile spermatozoa vs PTX [4, 9]: considerably (P < 0.001) higher percentage; percentage of total motile spermatozoa vs PTX [4, 9]: considerably (P < 0.001) higher percentage; percentage of progressively motile spermatozoa vs C, VC and PTX ([4]; normozoospermic samples, 24 h): higher percentage of progressively motile spermatozoa
